Assay results as given in US9365520B2, “Heterocyclic compound” (Takeda Pharmaceutical Company Limited, priority 2014, dated 2016).

How the values were obtained:
IL-17A gene expression = assay: Effect on IL-23-induced cytokine expression in mice; type: in vivo, Balb/c mice; conditions: Mus musculus, 24 h, 30 min before and 8 hr after IL-23, ear tissue, versus the negative control group, read-out: percent inhibition of IL-17A gene expression; for inhibition in vivo at 10 mg/kg: 10 mg/kg oral
Protocol: Effect on IL-23-Induced Cytokine Expression in Mice
A mouse IL-23 solution (500 ng/10 μL, prepared by Takeda Pharmaceutical Company Limited) or PBS (10 μL, negative control group) was administered intradermally in the ear of Balb/c mice (Charles River Japan, male, 7 weeks old). Twenty-four hr after administration, the ear was resected under isoflurane anesthesia. The test compound was suspended in 0.5% methylcellulose and administered orally 30 min before and 8 hr after IL-23 administration.
RNA extraction from the ear tissue and quantitative PCR were performed as follows. Specifically, ear tissue 5 mm in diameter was punched from an area of the resected ear centering on the IL-23 injection site, and the tissue was immersed in RNAlater (QIAGEN) for at least 18 hr. The RNAlater-treated ear tissue was homogenized in 350 μL of RLT buffer (RNeasy mini kit, QIAGEN) and treated (55° C., 10 min) with Proteinase K (QIAGEN). Total RNA was then extracted according to the RNeasy mini kit protocol. The RNA thus obtained was then reverse transcribed into cDNA using the High-Capacity RNA-to-cDNA kit (Applied Biosystems), and the amount of each gene expressions was measured by real-time PCR (Viia7™, Applied Biosystems). The PCR buffer used was TaqMan Fast Advanced Master Mix (Applied Biosystems), and TaqMan Gene Expression Assays (Applied Biosystems) Mm00439618_m1 (IL-17A) and 4352341E (β-actin) were used for each gene detection. The IL-17A gene expression level was normalized to the β-actin gene expression level, and the percent inhibition of IL-17A gene expression with the test compound was then calculated.
The results (percent inhibition of IL-17A gene expression with oral administration of the test compound) measured by the above-mentioned method are shown in Table 9.

[1] = system: IL-23-induced mouse psoriasis model; assay: Effect in an IL-23-induced mouse psoriasis model; type: in vivo, Balb/c mice; conditions: versus the negative control group
Protocol: Effect in an IL-23-Induced Mouse Psoriasis Model
Mouse IL-23 (500 ng/15 μL, R&D) or PBS (15 μL, negative control group) was administered intradermally in the ear of Balb/c mice (Charles River Japan, male, 7 weeks old) 5 times every other days. Seven hr after IL-23 administration at 8 days after the initial administration (final administration), the mice were anesthetized with isoflurane, and ear thickness was measured with calipers. After the ear thickness was measured, the ear was resected, tissue 8 mm in diameter was punched from an area centering on the IL-23 injection site, and the tissue was weighed. The punched ear tissue was cut in half, and one half was immersion-fixed in 10% neutral buffer formalin solution for use in histopathological evaluation. The other half was immersed in RNAlater (QIAGEN) for at least 18 hr for use in an evaluation of the IL-17A mRNA expression level. The test compound was suspended in 0.5% methylcellulose and administered orally twice daily on consecutive days from 30 min before the initial IL-23 administration to 30 min before the final IL-23 administration.
The change in ear thickness in this model was evaluated by calculating the difference in measured thickness between before IL-23 administration and 7 hr after the final IL-23 administration. In addition, the formalin-fixed tissue was embedded and sectioned, then stained with hematoxylin-eosin. The degree of acanthosis was then evaluated qualitatively by microscopy (classified with a score of 0 to 4). RNA extraction from the ear tissue and quantitative PCR were performed as follows. As described above, ear tissue treated with RNAlater (QIAGEN) was homogenized in 350 μL of RLT buffer (RNeasy mini kit, QIAGEN) and treated (55° C., 10 min) with Proteinase K (QIAGEN). Total RNA was then extracted according to the RNeasy mini kit protocol. The RNA thus obtained was reverse transcribed into cDNA using the High-Capacity RNA-to-cDNA kit (Applied Biosystems), and the expression of each gene was measured by real-time PCR (Viia7™, Applied Biosystems). The PCR buffer used was TaqMan Fast Advanced Master Mix (Applied Biosystems), and TaqMan Gene Expression Assays (Applied Biosystems) Mm00439618_ml (IL-17A) and 4352341E (β-actin) were used to detect the genes. The IL-17A gene expression level was normalized to the β-actin gene expression level, and the percent inhibition of IL-17A gene expression with the test compound was then calculated.
The results (percent inhibition of ear thickness, acanthosis score and IL-17A gene expression with oral administration of the test compound) measured by the above-mentioned method are shown in Table 10.

mouse EAE model = assay: Effect in a mouse EAE model; type: in vivo, C57BL/6J mice; conditions: 3 mg/kg oral; integration value of the clinical score for 28 days; versus the negative control group
Protocol: Effect in a Mouse EAE Model
. C57BL/6J mice (10 weeks old, female, Charles River Japan) were grouped based on the body weight, and the MOG emulsion was intradermally administered at two point of the joint of dorsal hindlimb so that the dose was 100 μL/site, 200 μL/mouse. In addition, Pertussis toxin (Merck) was intraperitoneally administered twice on the sensitization day and 2 days thereafter in the dose of 400 ng/200 μL/mouse. The body weight was measured twice a week before onset and everyday (excluding holiday) after onset from the sensitization day. The clinical score was evaluated by the following standard scores of 0 to 5 (0: normal, 0.5: partial paralysis of tail, 1: complete paralysis of tail, 2: partial paralysis of hindlimb, 3: paralysis of lower body, 4: partial paralysis of forelimb, 5: paralysis of both forelimbs or death) by observation everyday (excluding holiday) after the beginning of onset.
The percent inhibition of the clinical score of the test compound administration group relative to that of the control group was calculated using integration value of the clinical score for 28 days.
The results (percent inhibition of clinical score with oral administration of the test compound) measured by the above-mentioned method are shown in Table 12.

[2] = system: T cell-transferred mouse colitis model; assay: Effect in a T cell-transferred mouse colitis model; type: in vivo, mice; conditions: 3 mg/kg oral twice daily; 21 days after cell transfer; versus the negative control group
Excerpt: Effect in a T Cell-Transferred Mouse Colitis Model
Balb/c mice (Charles River Japan, female, 8 weeks old) were euthanized, and the spleens were resected, mashed in mesh, and passed through cell strainer to prepare a suspension of splenic cells. The mononuclear cell fraction in the splenic cells was isolated by density-gradient centrifugation, and subjected to hemolysis treatment with ammonium chloride buffer solution (Immuno-Biological Laboratories, Co., Ltd.). The naive T-cells were purified using CD4+CD62L+ T Cell Isolation Kit II (Miltenyi Biotec). The naive T-cells (2×10^5 cells/mouse) were intravenously transferred into SCIDmice (CLEA Japan, female, 8 weeks old). The compound was suspended in 0.5% methyl cellulose, and the suspension was orally administered twice daily on consecutive days from the same evening of the cell transfer. The mice were blinded 20 days after the cell transfer, and the symptom of the stool on floorcloth under blind was evaluated by scores of 1 to 4 (1: normal, 2: loose stool, 3: diarrhea (formed), 4: diarrhea (unformed)) 21 days after the cell transfer. […] The large intestine was washed with saline, and the weight was measured.
The results (percent inhibition of intestinal tract weight and diarrhea score with oral administration of the test compound) measured by the above-mentioned method are shown in Table 11.

Row | Structure (SMILES) | inhibition in vivo at 10 mg/kg (IL-17A gene expression) | percent inhibition of IL-17A expression ([1]; 1 mg/kg oral twice daily) | percent inhibition of acanthosis score ([1]; 1 mg/kg oral twice daily) | percent inhibition of ear thickness ([1]; 1 mg/kg oral twice daily) | percent inhibition of clinical score (mouse EAE model) | inhibition in vivo at 3 mg/kg (IL-17A gene expression; 3 mg/kg oral) | percent inhibition of IL-17A expression ([1]; 3 mg/kg oral twice daily) | percent inhibition of acanthosis score ([1]; 3 mg/kg oral twice daily) | percent inhibition of ear thickness ([1]; 3 mg/kg oral twice daily) | percent inhibition of diarrhea score [2] | percent inhibition of intestinal tract weight [2]
1 | COc1ccc2c(n1)CCN(C(=O)[C@H]1C[C@@H](C(=O)O)C1)[C@H]2C(=O)Nc1cc(F)c2c(c1)CCC2(C)C [Example 10] | 87% | 91% | 47% | 52% |  |  |  |  |  |  | 
2 | COCc1ccc2c(c1)CCN(C(=O)[C@H]1C[C@@H](CC(=O)O)C1)[C@H]2C(=O)Nc1cc(F)c2c(c1)CCC2(C)C [Example 19, (cis-3-(((1R)-1-((7-fluoro-1,1-dimethyl-2,3-dihydro-1H-inden-5-yl)carbamoyl)-6-(methoxymethyl)-3,4-dihydroisoquinolin-2(1H)-yl)carbonyl)cyclobutyl)acetic acid] | 90% |  |  |  |  |  |  |  |  |  | 
3 | COc1ccc2c(n1)CCN(C(=O)[C@H]1C[C@@H](CC(=O)O)C1)[C@H]2C(=O)Nc1cc(F)c2c(c1)CCC2(C)C [Example 15, (cis-3-(((5R)-5-((7-fluoro-1,1-dimethyl-2,3-dihydro-1H-inden-5-yl)carbamoyl)-2-methoxy-7,8-dihydro-1,6-naphthyridin-6(5H)-yl)carbonyl)cyclobutyl)acetic acid] |  |  |  |  | 64% | 99% | 93% | 53% | 61% | 81% | 58%
